Test results as given in patent publication US9409975B2, “Antibody binding microbial heparin binding motif to retard or prevent microbial biofilm formation on implanted medical devices” (priority 2012, dated 2016).

Test system: C. albicans
Assay: Heparin-binding ELISA assay: C. albicans binding to solid-phase heparin, desulfated heparin analogs, chondroitin sulfate or dermatan sulfate
Type: cell-based, Candida albicans
Conditions: equimolar amounts with respect to heparin
Method: To measure the binding of C. albicans to solid-phase heparin, a heparin-binding ELISA assay was developed, as follows. A single colony of each C. albicans wild type or mutant strain from a YPD plate was inoculated into 3 ml YPD medium and incubated overnight at 30° C. with shaking at 225 rpm. Sigma heparin (fresh solution made daily), diluted to 25 units/ml in autoclaved, sterile-filtered PBS was added as 0.1 ml aliquots to each well of an allyl amine-coated 96-well heparin binding microtiter plate (BD Biosciences). The plate was incubated at room temperature overnight in the dark (50). In the morning, the plate was washed with acetate buffer (100 mM NaCl, […], 0.2% Tween 20, pH 7.2), incubated with 3% bovine serum albumin (BSA) in PBS at 30° C. for 1 hour, then washed with PBS. In the meantime, overnight cultures of C. albicans were subcultured by dilution to OD600 of 0.2 in 25 ml of YPD, and grown at 30° C. to mid-log phase (OD600 0.6-0.7). […] After 45 minutes, absorbance at 595 nm was read on a Beckman Coulter DTX 880. […]
The ELISA assay used a commercially available 96-well microtiter plate coated with polymerized allylamine (BD Biosciences) (27), in which wells were inoculated with 2.5 units (12.5 μg) heparin in 100 μl phosphate buffered saline (PBS) per well. […] The color change was read spectrophotometrically at absorbance of 595 nm.

Substance	binding of C. albicans versus binding to heparin, in words
chondroitin sulfate	equivalent
dermatan sulfate	reduced
